Reference: EP0098141A2, “Prostaglandin D analogues, process for their preparation and compositions containing them” (ONO PHARMACEUTICAL CO., LTD., priority 1982, dated 1984)

Key:
Ehrlich ascites tumor = test: Prolongation of survival of mice inoculated with Ehrlich ascites tumor; format: in vivo; design: unit not given here; conditions: ICR mice inoculated intraperitoneally with Ehrlich ascites tumor cells (3 x 10^6/mouse) on day 0, 20 mg/kg/day intraperitoneally from day 1 to day 5
Experimental: The test on the prolongation of survival of mice inoculated with Ehrlich ascites tumor was conducted by a well known method. ICR mice, weighing 25 - 30 g, were inoculated with Ehrlich ascites tumor cells (3 x 10^6/mouse) intraperitoneally on day 0. A test compound was administered to mice intraperitoneally at a dose of 20 mg/kg/day from day 1 to day 5. Throughout the experiments, each group consisted of six mice (eight mice in control group). The effects of the test compounds were judged by the prolongation of survival time in days. In the Table 2, T/C was calculated below. [formula]

[1] = Acute toxicity by intraperitoneal administration in mice; conditions: mouse, in vivo, ip
Experimental: The acute toxicity of the compounds of the present invention was more than 100 mg/kg by intraperitoneal administration in mice, so that the PGD analogues of the present invention may be considered to be sufficiently safe and suitable for medical use.

[2] = system: cells originated from human mouth tumor (KB-cells); test: Inhibition of proliferation using cells originated from human mouth tumor (KB-cells); format: cell-based; conditions: 96 h, stationary culture at 37°C for 4 days, surviving cell number (Trypan Blue) relative to control
Experimental: The test on the inhibition of proliferation of cells originated from human mouth tumor was conducted by a well known method. The cells originated from human mouth tumor (KB-cells) were added to Eagle's MEM culture solution containing 10% bovine fetal serum, the number of cells in the culture solution was adjusted to 1x10^5 cells/ml, a solution in ethanol of the test compound was added to give a concentration of […] and the mixture was subjected to stationary culture at 37°C for 4 days. As a control, a culture solution containing 0.1% of ethanol was similarly cultured. After the culture, the culture solutions were stained by the Trypan Blue staining method, and the surviving cell number was measured to determine the degree of inhibition relative to the control.

[3] = system: human myelogenous leukemic cells (HL-60); test: Inhibition of proliferation using human myelogenous leukemic cells (HL-60); format: cell-based; conditions: 96 h, HL-60 cells, stationary culture at 37°C for 4 days, surviving cell number (Trypan Blue) relative to control
Experimental: The test on the inhibition of proliferation of human myelogenous leukemic cells was conducted by a well known method. The human myelogenous leukemic cells (HL-60) were added to an RPMI culture solution containing 10% bovine fetal serum, the number of cells in the culture solution was adjusted to 1x10^5 cells/ml, a solution in ethanol of the test compound was added to give a concentration of 5µg/ml or 1 µg/ml, and the mixture was subjected to stationary culture at 37°C for 4 days. As a control, a culture solution containing 0.1% of ethanol was similarly cultured. The culture solutions were stained by the Trypan Blue staining method, and the surviving cell number was measured to determine the degree of inhibition relative to the control.

For `CCCCC[C@H](O)/C=C/[C@H]1C(=O)C[C@H](O)[C@@H]1C/C=C\CCCC(=O)CO` [Compound 1, 2-Decarboxy-2-glycoloyl-PGD2], the T/C (Ehrlich ascites tumor) was 75.3, the LD50 [1] was 156 mg/kg and the inhibition at 1 µg/mL [2] was 23.5%. It also gave an inhibition at 5 µg/mL [2] of 100%, an inhibition at 1 µg/mL [3] of 20.4% and an inhibition at 5 µg/mL [3] of 96.7%.

`CCCCC[C@H](O)/C=C/[C@H]1C(=O)C=C[C@@H]1C/C=C\CCCC(=O)CO` [Compound 2, 2-Decarboxy-2-glycoloyl-9-deoxy-Δ^9-PGD2] gave a T/C (Ehrlich ascites tumor) of 70.5, an inhibition at 1 µg/mL [2] of 90.9% and an inhibition at 5 µg/mL [2] of 100%. For the same molecule, the inhibition at 1 µg/mL [3] was 100% and the inhibition at 5 µg/mL [3] was 100%.

For `CCCCCC=CC=C1C(=O)C=CC1CC=CCCCC(=O)CO` (stereo not shown) [Compound 3, (5Z,9Z,14EZ)-1-Hydroxymethylprosta-5,9,12,14-tetraene-1,11-dione], the T/C (Ehrlich ascites tumor) was 244.6, the inhibition at 1 µg/mL [2] was 10.6% and the inhibition at 5 µg/mL [2] was 100%. It also gave an inhibition at 1 µg/mL [3] of 100% and an inhibition at 5 µg/mL [3] of 100%.

Work on `CCCCC[C@H](O)/C=C/[C@H]1C(=O)C=C[C@@H]1C/C=C\CCCC(=O)NS(C)(=O)=O` [Compound 4, 9-Deoxy-Δ^9-PGD2 methanesulfonylamide] yielded an inhibition at 1 µg/mL [2] of 12.6%, an inhibition at 5 µg/mL [2] of 25.5% and an inhibition at 1 µg/mL [3] of 3.9%. It also gave an inhibition at 5 µg/mL [3] of 1.5%.

Molecule `CCCCCC=CC=C1C(=O)C=CC1CC=CCCCC(=O)NS(C)(=O)=O` (stereo not shown) [Compound 5, (5Z,9Z,14EZ)-N-Methanesulfonyl-11-oxoprosta-5,9,12,14-tetraen-1-amide] has an inhibition at 1 µg/mL [2] of 0.9%, an inhibition at 5 µg/mL [2] of 34.6% and an inhibition at 1 µg/mL [3] of 0%. The inhibition at 5 µg/mL [3] was 78.1%.

For `CCCCC[C@H](O)/C=C/[C@H]1C(=O)C[C@H](O)[C@@H]1C/C=C\CCCC(=O)N(C)C` [Compound 6, (SZ,13E)-(9a,15S)-N,N-Dimethyl-9,15-dihydroxy-11-oxoprosta-5,13-dien-1-amide], the inhibition at 1 µg/mL [2] was 19.6%, the inhibition at 5 µg/mL [2] was 100% and the inhibition at 1 µg/mL [3] was 9.9%. For the same molecule, the inhibition at 5 µg/mL [3] was 99.1%.

Molecule `CCCCC[C@H](O)/C=C/[C@H]1C(=O)C=C[C@@H]1C/C=C\CCCC(=O)N(C)C` [Compound 7, (5Z,9Z,13E)-(15S)-N,N-Dimethyl-11-oxo-15-hydroxyprosta-5,9,13-trien-l-amide] has an inhibition at 1 µg/mL [2] of 23.7%, an inhibition at 5 µg/mL [2] of 100% and an inhibition at 1 µg/mL [3] of 41.8%. For the same molecule, the inhibition at 5 µg/mL [3] was 100%.

Molecule `CCCCCC=CC=C1C(=O)C=CC1CC=CCCCC(=O)N(C)C` (stereo not shown) [Compound 8, (5Z,9Z,14EZ)-N,N-Dimethyl-11-oxoprosta-5,9,12,14-tetraen-1-amide] has an inhibition at 1 µg/mL [2] of 9.5%, an inhibition at 5 µg/mL [2] of 100% and an inhibition at 1 µg/mL [3] of 30.9%. For the same molecule, the inhibition at 5 µg/mL [3] was 100%.

With `CCCCC[C@H](O)/C=C/[C@H]1C(=O)C[C@H](O)[C@@H]1C/C=C\CCCC(N)=O` [Compound 9, (5Z,13E)-(9α,15S)-9,15-Dihydroxy-11-oxoprosta-5,13-dien-1-amide] the inhibition at 1 µg/mL [2] was 2.8%, the inhibition at 5 µg/mL [2] was 98.8% and the inhibition at 1 µg/mL [3] was 21.5%. The inhibition at 5 µg/mL [3] was 97.8%.

`CCCCC[C@H](O)/C=C/[C@H]1C(=O)C=C[C@@H]1C/C=C\CCCC(N)=O` [Compound 10, (52,9Z,13E)-(15S)-11-Oxo-15-hydroxyprosta-5,9,13-trien-1-amide] gave an LD50 [1] of 167 mg/kg, an inhibition at 1 µg/mL [2] of 15.4% and an inhibition at 5 µg/mL [2] of 100%.

Work on `CCCCCC=CC=C1C(=O)C=CC1CC=CCCCC(N)=O` (stereo not shown) [Compound 11, (5Z,9Z,14EZ)-11-Oxoprosta-5,9,12,14-tetraen-1-amide] yielded a T/C (Ehrlich ascites tumor) of 155.6, an inhibition at 1 µg/mL [2] of 0.9% and an inhibition at 5 µg/mL [2] of 100%.
